Measured values as given in paper PMC10489980, “Design of Potent and Salt-Insensitive Antimicrobial Branched Peptides” (Polymers, 2023).
Residues, ends and D or L forms follow the SMILES beside them.

Legend:
Assay type in all cases: cell-based
[1] = tested on: ten test organisms (four Gram-negative bacteria, three Gram-positive bacteria, three fungi)
From the text: Ten organisms obtained from the American Type Culture Collection (ATCC; Rockville, MD) were used for antimicrobial assays. Four Gram-negative bacteria included Escherichia coli ATCC 25922, Pseudomonas aeruginosa ATCC 27853, Klebsiella oxytoca ATCC 49131, and Proteus vulgaris ATCC 49132. The three Gram-positive bacteria were Staphylococcus aureus 29213, Micrococcus luteus ATCC 49,732, and Enterococcus faecalis ATCC 29212. The three fungi were Candida albicans ATCC 37092, Candida kefyr ATCC 37095, and Candida tropicalis ATCC 37097. The clinical isolates were obtained from Singapore General Hospital (SGH). […]
Antimicrobial Assays. […] After additional incubation at 37 °C for 16–24 h, the diameter of the clear zone surrounding the wells (colony-free) was measured under a microscope. Antimicrobial activities were expressed in units (0.1 mm = 1 unit), and the MICs (in µM) were determined from the x-intercepts of the dose-response curves. […]
The minimum inhibitory concentrations (MICs) of four series of branched peptides and two standards, tachyplesin-1 and the dendrimer D4R, against four Gram-negative bacteria, three Gram-positive bacteria, and three fungi were determined using a two-stage radial diffusion assay in both low- (without NaCl) and high-salt (with 100 mM NaCl) conditions. […]

[2] = tested on: Escherichia coli ATCC 25922; conditions: ATCC 25922, two-stage radial diffusion assay, 37 °C, x-intercept of dose-response curve, triplicates; for MIC, E. coli, H-Salt: high-salt (underlay gel 10 mM sodium phosphate, 0.03% TSB, 0.02% Tween-20, with 100 mM NaCl); for MIC, E. coli, L-Salt: low-salt (underlay gel 10 mM sodium phosphate, 0.03% TSB, 0.02% Tween-20, without NaCl)
Procedure, shortened: (§1)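 Two-stage radial diffusion: 1–4 × 10^6 CFU/mL organisms were cast in an underlay of 10 mM sodium phosphate, 0.03% TSB and 0.02% Tween-20, with 100 mM NaCl for high-salt runs. Peptides at seven half-log concentrations diffused for 3 h at 37° C, followed by a TSB agarose overlay and a further 16–24 h. MIC was taken from the x-intercepts of clear-zone dose-response plots, in triplicate.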

[3] = tested on: Enterococcus faecalis ATCC 29212; conditions: ATCC 29212, radial diffusion assay, triplicates; for MIC, E. faecalis, H-Salt: high-salt (100 mM NaCl); for MIC, E. faecalis, L-Salt: low-salt (without NaCl)
Procedure, shortened: as §1

[4] = tested on: Candida tropicalis ATCC 37097; conditions: ATCC 37097, radial diffusion assay, triplicates; for MIC, C. tropicalis, H-Salt: high-salt (100 mM NaCl); for MIC, C. tropicalis, L-Salt: low-salt (without NaCl)
Procedure, shortened: as §1

[5] = tested on: Staphylococcus aureus 29213; conditions: strain 29213, radial diffusion assay, triplicates; for MIC, S. aureus, H-Salt: high-salt (100 mM NaCl); for MIC, S. aureus, L-Salt: low-salt (without NaCl)
Procedure, shortened: as §1

[6] = tested on: Candida albicans ATCC 37092; conditions: ATCC 37092, radial diffusion assay, triplicates; for MIC, C. albicans, H-Salt: high-salt (100 mM NaCl); for MIC, C. albicans, L-Salt: low-salt (without NaCl)
Procedure, shortened: as §1

[7] = tested on: Proteus vulgaris ATCC 49132; conditions: ATCC 49132, radial diffusion assay, triplicates; for MIC, P. vulgaris, H-Salt: high-salt (100 mM NaCl); for MIC, P. vulgaris, L-Salt: low-salt (without NaCl)
Procedure, shortened: as §1

[8] = tested on: Pseudomonas aeruginosa ATCC 27853; conditions: ATCC 27853, radial diffusion assay, triplicates; for MIC, P. aeruginosa, H-Salt: high-salt (100 mM NaCl); for MIC, P. aeruginosa, L-Salt: low-salt (without NaCl)
Procedure, shortened: as §1

[9] = tested on: Micrococcus luteus ATCC 49,732; conditions: ATCC 49,732, radial diffusion assay, triplicates; for MIC, M. luteus, H-Salt: high-salt (100 mM NaCl); for MIC, M. luteus, L-Salt: low-salt (without NaCl)
Procedure, shortened: as §1

Candida kefyr ATCC 37095 = conditions: ATCC 37095, radial diffusion assay, triplicates; for MIC, C. kefyr, H-Salt: high-salt (100 mM NaCl); for MIC, C. kefyr, L-Salt: low-salt (without NaCl)
Procedure, shortened: as §1

[10] = tested on: Klebsiella oxytoca ATCC 49131; conditions: ATCC 49131, radial diffusion assay, triplicates; for MIC, K. oxytoca, H-Salt: high-salt (100 mM NaCl); for MIC, K. oxytoca, L-Salt: low-salt (without NaCl)
Procedure, shortened: as §1

SMILES	MIC, E. coli, H-Salt [2] [µM]	MIC, E. coli, L-Salt [2] [µM]	MIC, E. faecalis, H-Salt [3] [µM]	MIC, E. faecalis, L-Salt [3] [µM]	MIC, C. tropicalis, H-Salt [4] [µM]	MIC, C. tropicalis, L-Salt [4] [µM]	MIC, S. aureus, H-Salt [5] [µM]	MIC, S. aureus, L-Salt [5] [µM]	MIC, C. albicans, H-Salt [6] [µM]	MIC, C. albicans, L-Salt [6] [µM]	MIC, P. vulgaris, H-Salt [7] [µM]	MIC, P. vulgaris, L-Salt [7] [µM]	MIC, P. aeruginosa, H-Salt [8] [µM]	MIC, P. aeruginosa, L-Salt [8] [µM]	MIC, M. luteus, H-Salt [9] [µM]	MIC, M. luteus, L-Salt [9] [µM]	MIC, C. kefyr, H-Salt (Candida kefyr ATCC 37095) [µM]	MIC, C. kefyr, L-Salt (Candida kefyr ATCC 37095) [µM]	MIC, K. oxytoca, H-Salt [10] [µM]	MIC, K. oxytoca, L-Salt [10] [µM]	further results
CC(C)C[C@H](NC(=O)[C@H](CCCNC(=N)N)NC(=O)[C@H](CCCNC(=N)N)NC(=O)[C@@H](N)Cc1ccc(O)cc1)C(=O)NCCCC[C@H](NC(=O)[C@H](CC(C)C)NC(=O)[C@H](CCCNC(=N)N)NC(=O)[C@H](CCCNC(=N)N)NC(=O)[C@@H](N)Cc1ccc(O)cc1)C(=O)NCCCC[C@H](NC(=O)[C@H](CCCCNC(=O)[C@H](CC(C)C)NC(=O)[C@H](CCCNC(=N)N)NC(=O)[C@H](CCCNC(=N)N)NC(=O)[C@@H](N)Cc1ccc(O)cc1)NC(=O)[C@H](CC(C)C)NC(=O)[C@H](CCCNC(=N)N)NC(=O)[C@H](CCCNC(=N)N)NC(=O)[C@@H](N)Cc1ccc(O)cc1)C(N)=O [D4Y] (HELM PEPTIDE1{Y.R.R.L.K.K.[am]}|PEPTIDE2{Y.R.R.L}|PEPTIDE3{Y.R.R.L.K}|PEPTIDE4{Y.R.R.L}$PEPTIDE1,PEPTIDE2,5:R3-4:R2|PEPTIDE3,PEPTIDE4,5:R3-4:R2|PEPTIDE1,PEPTIDE3,6:R3-5:R2$$$V2.0; N-terminus and C-terminus assumed)	–	–	–	–	–	–	–	–	–	–	–	–	–	–	–	–	–	–	–	–	MIC in four other organisms, high-salt ([1]; 3 h): < 10 µM; antimicrobial activity under high-salt conditions against six of ten tested organisms ([1]; radial diffusion assay, 1% agarose, 10 mM phosphate buffer with 100 mM NaCl, result in words): inactive
CC(C)C[C@H](NC(=O)[C@@H](N)CCCNC(=N)N)C(=O)N[C@@H](Cc1ccc(O)cc1)C(=O)N[C@@H](CCCNC(=N)N)C(=O)NCCCC[C@H](NC(=O)[C@H](CCCCNC(=O)[C@H](CCCNC(=N)N)NC(=O)[C@H](Cc1ccc(O)cc1)NC(=O)[C@H](CC(C)C)NC(=O)[C@@H](N)CCCNC(=N)N)NC(=O)[C@H](CCCCNC(=O)[C@H](CCCNC(=N)N)NC(=O)[C@H](Cc1ccc(O)cc1)NC(=O)[C@H](CC(C)C)NC(=O)[C@@H](N)CCCNC(=N)N)NC(=O)[C@H](CCCCNC(=O)[C@H](CCCNC(=N)N)NC(=O)[C@H](Cc1ccc(O)cc1)NC(=O)[C@H](CC(C)C)NC(=O)[C@@H](N)CCCNC(=N)N)NC(=O)OCC1c2ccccc2-c2ccccc21)C(N)=O [K4R]	0.7	0.7	1.5	0.5	1.2	1.5	0.9	0.8	0.8	0.7	1.0	1.1	0.9	0.8	1.0	0.6	0.9	0.9	1.2	1.3	–
CC(=O)N[C@@H](CCCNC(=O)[C@H](CCCNC(=N)N)NC(=O)[C@H](Cc1ccc(O)cc1)NC(=O)[C@H](CC(C)C)NC(=O)[C@@H](N)CCCNC(=N)N)C(=O)N[C@@H](CCCNC(=O)[C@H](CCCNC(=N)N)NC(=O)[C@H](Cc1ccc(O)cc1)NC(=O)[C@H](CC(C)C)NC(=O)[C@@H](N)CCCNC(=N)N)C(=O)N[C@@H](CCCNC(=O)[C@H](CCCNC(=N)N)NC(=O)[C@H](Cc1ccc(O)cc1)NC(=O)[C@H](CC(C)C)NC(=O)[C@@H](N)CCCNC(=N)N)C(=O)N[C@@H](CCCNC(=O)[C@H](CCCNC(=N)N)NC(=O)[C@H](Cc1ccc(O)cc1)NC(=O)[C@H](CC(C)C)NC(=O)[C@@H](N)CCCNC(=N)N)C(N)=O [O4R]	4.1	0.7	> 500	6.6	1.5	1.4	2.0	7.3	1.6	1.4	2.2	5.6	4.8	2.1	6.9	1.8	0.8	0.7	2.4	1.8	–
